Values quoted from earlier work as cited in patent US20070149500A1, “Compounds, compositions, and methods” (priority 2003, published 2007).

Test system: A549 cells
Settings: data provided by National Cancer Institute

## O=c1[nH]cc(F)c(=O)[nH]1 [5-fluorouracil]
  GI50: 1000 nM

## NC(=O)NO [hydroxyurea]
  GI50: 500000 nM

## CC(=O)O[C@H]1C(=O)[C@@]2(C)[C@H]([C@H](OC(=O)c3ccccc3)[C@]3(O)C[C@H](OC(=O)[C@H](O)[C@@H](NC(=O)c4ccccc4)c4ccccc4)C(C)=C1C3(C)C)[C@]1(OC(C)=O)CO[C@@H]1C[C@@H]2O [paclitaxel]
  GI50: 4 nM
